Measurements reported in patent US8859562B2, “Use of RNAI inhibiting PARP activity for the manufacture of a medicament for the treatment of cancer” (The University of Sheffield, priority 2003, dated 2014).

Key:
[1] = system: irs1X2.2 cells (irs1 complemented with XRCC2); assay: Colony outgrowth assay, irs1X2.2 cells; assay type: cell-based, Chinese hamster; conditions: irs1X2.2 versus irs1; FIG. 1
Description: (§1) 500 cells suspended in medium were plated onto a Petri dish 4 hours prior to the addition of 3-AB, ISQ or NU1025. ISQ and NU1025 were dissolved in DMSO to a final concentration of 0.2% in treatment medium. 7-12 days later, when colonies could be observed, these colonies were fixed and stained with methylene blue in methanol (4 g/l). Colonies consisting of more than 50 cells were subsequently counted.

[2] = system: irs1 cells (XRCC2 deficient, deficient in HR); assay: Colony outgrowth assay, irs1 cells; assay type: cell-based, Chinese hamster; conditions: irs1, defective in XRCC2; FIG. 1
Description: as §1

[3] = system: CXR3 cells (irs1SF complemented with XRCC3); assay: Colony outgrowth assay, CXR3 cells; assay type: cell-based, Chinese hamster; conditions: CXR3 versus irs1SF; FIG. 1
Description: as §1

[4] = system: irs1SF cells (XRCC3 deficient, deficient in HR); assay: Colony outgrowth assay, irs1SF cells; assay type: cell-based, Chinese hamster; conditions: defective in XRCC3, FIG. 1
Description: as §1

PARP = PARP activity assay by level of free NAD(P)H (WST-8); assay type: cell-based; conditions: FIG. 7F; hydroxyurea 0.5 mM, thymidine 10 mM
Description: A water-soluble tetrazolium salt (5 mM WST-8) was used to monitor the amount of NAD(P)H through its reduction to a yellow coloured formazan dye[43]. 5000 cells were plated in at least triplicate into wells of a 96 well plate and cultured in 100 μl normal growth media for 4 h at 37° C. CK8 buffer (Dojindo Molecular Technology, Gaithersburg, USA), containing WST-8, was then added either with or without treatment with DNA damaging agents at concentrations indicated. Reduction of WST-8 in the presence of NAD(P)H was determined by measuring visible absorbance (OD450) every 30 min. A medium blank was also prepared containing just media and CK8 buffer. Changes in NAD(P)H levels were calculated by comparing the absorbance of wells containing cells treated with DNA damaging agents and those treated with DMSO alone. Alternately relative levels of NAD(P)H in different cells lines were calculated after 4 h incubation in CK8 buffer.

[5] = system: MDA-MB-231 (mutated p53) breast cancer cells depleted of BRCA2; assay: Colony outgrowth of siRNA-treated MDA-MB-231 cells; assay type: cell-based; conditions: MDA-MB-231, BRCA2 depleted with a mixture of BRCA2 siRNA; FIG. 4
Description: 500 cells suspended in medium were plated onto a Petri dish 4 hours prior to the addition of 3-AB, ISQ or NU1025. ISQ and NU1025 were dissolved in DMSO to a final concentration of 0.2% in treatment medium. 7-12 days later, when colonies could be observed, these colonies were fixed and stained with methylene blue in methanol (4 g/l). Colonies consisting of more than 50 cells were subsequently counted. Predesigned BRCA2 SMARTpool and scrambled siRNAs were purchased (Dharmacon, Lafayette, Colo.). 10000 cells seeded onto 6 well plates and left over night before transfected with 100 nM siRNA using Oligofectamine Reagent (Invitrogen) according to manufacturers instructions. Cells were then cultured in normal growth media for 48 h prior to trypsinisation and replating for toxicity assays. Suppression of BRCA2 was confirmed by Western blotting (as described previously) of protein extracts treated with siRNA with an antibody against BRCA2 (Oncogene, Nottingham, UK).

[6] = system: BRCA2 deficient V-C8 cells; assay: RAD51 foci immunofluorescence, V-C8 cells; assay type: cell-based, Chinese hamster; conditions: 24-hour treatment, 10 μM, FIG. 5D
Description: (§2) Cells were plated onto coverslips 4 h prior to 24-h treatments as indicated. Following treatments the medium was removed and coverslips rinsed once in PBS at 37° C. and fixed as described elsewhere. The primary antibodies and dilutions used in this study were; rabbit polyclonal anti PAR (Trevigen; 1:500), goat polyclonal anti Rad51 (C-20, Santa Cruz; 1:200) and rabbit polyclonal anti Rad51 (H-92, Santa Cruz; 1:1000). The secondary antibodies were Cy-3-conjugated goat anti-rabbit IgG antibody (Zymed; 1:500), Alexa 555 goat anti-rabbit F(ab′)2IgG antibody (Molecular Probes; 1:500), Alexa 546 donkey anti-goat IgG antibody (Molecular Probes; 1:500) and Alexa 488 donkey anti-rabbit IgG antibody (Molecular Probes; 1:500). Antibodies were diluted in PBS containing 3% bovine serum albumin. DNA was stained with 1 μg/ml To Pro (Molecular Probes). Images were obtained with a Zeiss LSM 510 inverted confocal microscope using planapochromat 63X/NA 1.4 oil immersion objective and excitation wavelengths 488, 546 and 630 nm. Through focus maximum projection images were acquired from optical sections 0.50 μm apart and with a section thickness of 1.0 μm. Images were processed using Adobe PhotoShop (Abacus Inc). At least 300 nuclei were counted on each slide and those containing more than 10 RAD51 foci or sites of PARP activity were classified as positive.

V79 cells = assay: Pulse-field gel electrophoresis for DSBs, V79 cells; assay type: cell-based, Chinese hamster; conditions: highly toxic levels of NU1025 (0.1 mM, 24-hour), FIG. 5A
Description: (§3) 1.5×10^6 cells were plated onto 100 mm dishes and allowed 4 h for attachment. […] These inserts were incubated as described elsewhere (8) and separated by pulse-field gel electrophoresis for 24 h (BioRad; 120° angle, 60 to 240 s switch time, 4 V/cm). The gel was subsequently stained with ethidium bromide for analysis.

[7] = system: MCF7 (wild-type p53) breast cancer cells depleted of BRCA2; assay: Colony outgrowth of siRNA-treated MCF-7 cells; assay type: cell-based; conditions: MCF7, BRCA2 depleted with a mixture of BRCA2 siRNA; FIG. 4
Description: as §1
Predesigned BRCA2 SMARTpool and scrambled siRNAs were purchased (Dharmacon, Lafayette, Colo.). 10000 cells seeded onto 6 well plates and left over night before transfected with 100 nM siRNA using Oligofectamine Reagent (Invitrogen) according to manufacturers instructions. Cells were then cultured in normal growth media for 48 h prior to trypsinisation and replating for toxicity assays. Suppression of BRCA2 was confirmed by Western blotting (as described previously) of protein extracts treated with siRNA with an antibody against BRCA2 (Oncogene, Nottingham, UK).

V-C8 cells = assay: Pulse-field gel electrophoresis for DSBs, V-C8 cells; assay type: cell-based, Chinese hamster; conditions: highly toxic levels of NU1025 (0.1 mM, 24-hour), FIG. 5A
Description: as §3

[8] = system: BRCA2 deficient cells (VC8); assay: Colony outgrowth assay, VC8 cells; assay type: cell-based, Chinese hamster
Description: as §1

VC8 cells = assay: Apoptosis experiments (annexin-V/PI flow cytometry); assay type: cell-based, Chinese hamster; conditions: 72 hours following exposure; FIG. 3
Description: 0.25×10^6 cells were plated onto Petri dishes and grown for 4 hours before treatment with NU1025. After 72 hours, cells were trypsinized and resuspended with medium containing any floating cells from that sample. The cells were pelleted by centrifugation and resuspended for apoptosis analysis with FITC-conjugated annexin-V and propidium iodine (PI) (ApoTarget, Biosource International) according to manufacturer's protocol. Samples were analysed by flow cytometry (Becton-Dickenson FACSort, 488 nm laser), and percentage of apoptotic cells was determined by the fraction of live cells (PI-negative) bound with FITC-conjugated annexin-V.

V-C8+B2 cells [9] = assay: Survival on co-treatment with replication inhibitors and NU1025; assay type: cell-based, Chinese hamster; conditions: co-treatment with NU1025 (10 μM)
Description: as §1

V-C8+B2 cells [10] = assay: RAD51 foci immunofluorescence, V-C8+B2 cells; assay type: cell-based, Chinese hamster; conditions: 24-hour treatment, 10 μM, t-test p<0.05, FIG. 5D
Description: as §2

[11] = system: VC8+B2 cells (functional BRCA2 gene on overexpression vector); assay: Colony outgrowth assay, VC8+B2 cells; assay type: cell-based, Chinese hamster; conditions: FIG. 2
Description: as §1

[12] = system: VC8#13 cells (functional BRCA2 gene on chromosome 13); assay: Colony outgrowth assay, VC8#13 cells; assay type: cell-based, Chinese hamster; conditions: BRCA2 on chromosome 13 (VC8#13); FIG. 2
Description: as §1

V79 hamster cells = assay: PAR polymer staining (sites of PARP activity); assay type: cell-based; conditions: V79 cells treated for 24 hours; FIG. 7C
Description: as §2

| SMILES | sensitivity after introduction of functional XRCC2 gene [1] | sensitivity to the toxic effect (survival) [2] | sensitivity after introduction of functional XRCC3 gene [3] | sensitivity to the toxic effect (survival) [4] | activation of PARP and reduction of NAD(P)H levels (PARP) | number of cells containing sites of PARP activity (V79 hamster cells) | also measured |
| --- | --- | --- | --- | --- | --- | --- | --- |
| NC(=O)c1cccc(N)c1 [3-AB, 3-aminobenzamide] | corrected | very sensitive | corrected | very sensitive |  |  |  |
| Oc1cccc2c(O)nccc12 [ISQ, 1,5-dihydroxyisoquinoline] | corrected | very sensitive | corrected | very sensitive |  |  |  |
| COS(C)(=O)=O [MMS, Methylmethane sulphonate] |  |  |  |  | depletes the NAD(P)H levels |  |  |
| Cc1nc2c(O)cccc2c(=O)[nH]1 [NU1025, 8-hydroxy-2-methylquinazolin-4-[3H]one] | corrected | very sensitive | corrected | very sensitive |  |  | survival [5]: profoundly reduced the survival; formation of RAD51 foci [6]: unable to form RAD51 foci; accumulation of DSBs (V79 cells): no DSBs were detectable; survival [7]: profoundly reduced the survival; accumulation of DSBs (V-C8 cells): no DSBs were detectable; sensitivity to cytotoxicity relative to wild type cells ([8]; BRCA2 deficient cells versus wild type cells): 100 times; sensitivity to the toxic effect (survival) ([8]; VC8 versus wild type V79Z, FIG. 2): very sensitive; level of apoptosis (VC8 cells): triggered apoptosis only in VC8 cells; sensitivity to hydroxyurea (V-C8+B2 cells [9]; FIG. 7D): enhances the sensitivity; sensitivity to thymidine (V-C8+B2 cells [9]; FIG. 7E): enhances the sensitivity; formation of RAD51 foci (V-C8+B2 cells [10]): RAD51 foci were indeed induced; sensitivity after introduction of functional BRCA2 gene [11]: corrected; sensitivity after introduction of functional BRCA2 gene [12]: corrected |
| NC(=O)NO [hydroxyurea] |  |  |  |  | much slower | substantial increase |  |
| Cc1cn([C@H]2C[C@H](O)[C@@H](CO)O2)c(=O)[nH]c1=O [thymidine] |  |  |  |  | much slower | substantial increase |  |
